Test [1] deals with B. fragilis NCTC 10581. Description: MIC/MBC against Bacteroides fragilis strain A (96-well microtitre plates, anaerobic chamber). The settings on record: for MBC / MIC: Bacteroides fragilis; for MBC: NCTC10581, 99.9% reduction in viable count; for MIC: NCTC10581, 48 h. Type of test: cell-based. The procedure: (§1) The screening panel utilized in this Example consisted of 5 strains of Bacteroides fragilis. All assays were carried out in 96-well microtitre plates. If an isolate was obtained from either a culture collection or clinical source, the isolate was immediately inoculated into Wilkens-Chalgren broth (Oxoid) and incubated at 37° C. in an anaerobic chamber in an atmosphere of 85% nitrogen, 10% carbon dioxide, and 5% hydrogen for 48 hours. At the end of this time, the viable count was about 10^12 organisms/ml broth. A 1 ml aliquot of each culture was placed in an ampoule and quick frozen in acetone-dry ice mixture and stored in liquid nitrogen. When an inoculum was utilized in an assay, one of the ampoules was thawed and diluted with fresh broth to yield a suspension having a count of 5×10^5 organisms/ml. A 100 μl aliquot of this suspension was inoculated into each well of the microtitre plate. A 2 mg sample of the test compound was dissolved in 0.2 ml of a suitable solvent such as dimethylsulfoxide, polyethylene glycol 200 or methanol. […] After addition of the test solution the final inoculum level was 10^5 cells/ml. The plates were incubated for 48 hours at 37° C. in the anaerobic chamber. The Minimum Inhibitory Concentration (MIC) was read visually. The MIC is defined as the lowest concentration at which there is no detectable growth. The Minimum Bactericidal Concentration (MBC) was determined by taking 50 μl aliquot from each well and placing it in fresh medium. […] The strains of Bacteroides fragilis utilized in the above procedure are identified by letter in accordance with the following legend: |A B. fragilis NCTC 10581

The test system of test [2] is B. fragilis NCTC 9343. As to the kind of experiment: MIC/MBC against Bacteroides fragilis strain B. The class given is cell-based. The method, then: as §1, with “|B” for “|A”, “9343” for “10581”
Test [3] concerns B. fragilis NCTC 9344. As to the kind of experiment: MIC/MBC against Bacteroides fragilis strain C. Type of test: cell-based. The procedure: as §1, with “|C” for “|A”, “9344” for “10581”
The subject of test [4] is B. fragilis MZ-R ATCC 11295. Description: MIC/MBC against Bacteroides fragilis strain D. The class given is cell-based. The procedure: The screening panel utilized in this Example consisted of 5 strains of Bacteroides fragilis. All assays were carried out in 96-well microtitre plates. If an isolate was obtained from either a culture collection or clinical source, the isolate was immediately inoculated into Wilkens-Chalgren broth (Oxoid) and incubated at 37° C. in an anaerobic chamber in an atmosphere of 85% nitrogen, 10% carbon dioxide, and 5% hydrogen for 48 hours. At the end of this time, the viable count was about 10^12 organisms/ml broth. A 1 ml aliquot of each culture was placed in an ampoule and quick frozen in acetone-dry ice mixture and stored in liquid nitrogen. When an inoculum was utilized in an assay, one of the ampoules was thawed and diluted with fresh broth to yield a suspension having a count of 5×10^5 organisms/ml. A 100 μl aliquot of this suspension was inoculated into each well of the microtitre plate. A 2 mg sample of the test compound was dissolved in 0.2 ml of a suitable solvent such as dimethylsulfoxide, polyethylene glycol 200 or methanol. […] After addition of the test solution the final inoculum level was 10^5 cells/ml. The plates were incubated for 48 hours at 37° C. in the anaerobic chamber. The Minimum Inhibitory Concentration (MIC) was read visually. The MIC is defined as the lowest concentration at which there is no detectable growth. The Minimum Bactericidal Concentration (MBC) was determined by taking 50 μl aliquot from each well and placing it in fresh medium.

Test [5] relates to B. fragilis WS-1. Description: MIC/MBC against Bacteroides fragilis strain E. Type of test: cell-based. The procedure:
as §1, with “|E” for “|A”, “WS-1*” for “NCTC 10581”

For test [6], the system named is Clostridium perfringens NCTC 523. As to the kind of experiment: microbe, parasite or virus in culture. The class given is cell-based. The settings on record: Clostridium perfringens NCTC 523; procedures of Example 40; bishydrochloride.
Test [7] concerns Clostridium perfringens NCTC 8237. As to the kind of experiment: microbe, parasite or virus in culture. The class given is cell-based. To be noted: Clostridium perfringens NCTC 8237; procedures of Example 40; bishydrochloride.
In test [8] the test system is Costridium difficile NCIB 10666. As to the kind of experiment: MIC vs panel of anaerobes. The settings on record: procedures of Example 40. The class given is cell-based, C. difficile.
The subject of test [9] is Campylobacter fetus ss. jejuni ATCC 29428. As to the kind of experiment: MIC vs panel of anaerobes. To be noted: ATCC29428, procedures of Example 40. Type of test: cell-based.
In test [10] the test system is Campylobacter fetus ss. jejuni NCTC 10842. Description: MIC vs panel of anaerobes. Type of test: cell-based. The settings on record: NCTC10842, procedures of Example 40.
Test [11] concerns Fusobacterium necrophorum ATCC 11295. Description: MIC vs panel of anaerobes. Type of test: cell-based. To be noted: Fusobacterium necrophorum ATCC 11295; procedures of Example 40; bishydrochloride.
Test [12] deals with B. melanogenicus ATCC 15032. As to the kind of experiment: MIC vs panel of anaerobes. Type of test: cell-based. The settings on record: procedures of Example 40.
Test [13] concerns P. anaerobius. As to the kind of experiment: MIC vs panel of anaerobes. Type of test: cell-based. The settings on record: Peptostreptococcus anaerobius, procedures of Example 40.
Test [14] concerns B. fragilis 23745. To be noted: p.o., after infection and twice daily for 2 days; log CFU/ml liver homogenate; test compound; bishydrochloride.
Test [15] concerns Peptococcous magnus. Description: MIC vs panel of anaerobes. The class given is cell-based. To be noted: procedures of Example 40.
Test [16] has as its system Peptostreptococcus. Description: MIC vs panel of anaerobes. The class given is cell-based. The settings on record: procedures of Example 40.

Each structure is given as a SMILES string. In brackets after ≈: the same amount, converted by molar mass. Where a name gives a salt, the structure may show the parent alone. Read-outs that look alike come from different tables or passages of the source.

Data on 3 molecules can be found in patent US4761414A, “Substituted 1H-pyrimido[1,2-a-]-pyrido[3,4-e]pyrazine 6 oxides” (G. D. Searle & Co., priority 1986, dated 1988).

The MBC is the lowest tested concentration that kills the bacteria rather than only halting them. Turning to `CCC1(C)CN=C2C(c3ccc(C)cc3)=[N+]([O-])c3cccnc3N2C1` (stereo not shown) [Example 35, 2,3-Dihydro-2-ethyl-2-methyl-5-(4-methylphenyl)-1H-pyrimido[1,2-a]pyrido[3,2-e]pyrazine 6-oxide], the MBC is less than 0.8 µg/mL in test [1]; less than 0.8 µg/mL in test [2] (NCTC9343, 99.9% reduction in viable count); less than 0.8 µg/mL in [3] (NCTC9344, 99.9% reduction in viable count); less than 0.8 µg/mL in test [4] (ATCC11295, 99.9% reduction in viable count); less than 0.8 µg/mL in test [5] (WS1, 99.9% reduction in viable count). The MIC in test [1] (48 hours, 37° C., anaerobic) is less than 0.8 µg/mL; in [2] (NCTC9343, 48 h, 48 hours, 37° C., anaerobic), less than 0.8 µg/mL; in test [3] (NCTC9344, 48 h, 48 hours, 37° C., anaerobic), less than 0.8 µg/mL; in test [4] (ATCC11295, 48 h, 48 hours, 37° C., anaerobic), less than 0.8 µg/mL; in test [5] (WS1, 48 h, 48 hours, 37° C., anaerobic) it was less than 0.8 µg/mL.
On to `CC1(C)CN=C2C(c3ccccc3)=[N+]([O-])c3cccnc3N2C1` [Example 39, 2,3-dihydro-2,2-dimethyl-5-phenyl-1H-pyrimido[1,2-a]pyrido[3,2-e]pyrazine 6-oxide bishydrochloride], for which the MIC in [6] came to 1.5 µg/mL; in [7] it was 6.2 µg/mL; in test [8] (C. difficile NCIB 10666, bishydrochloride), 1.5 µg/mL; in test [9], 50 µg/mL; in [10], 25 µg/mL; in [11], 1.5 µg/mL. Also, the MIC in test [12] and in [13] was 100 µg/mL throughout. Also, the “DOSE GIVING 1 LOG REDUCTION” value in [14] was determined as 0.7 mg/kg. The “DOSE GIVING 1 LOG REDUCTION (molar)” value in test [14] worked out at 1.8 μM/Kg.
For `Cc1ncc([N+](=O)[O-])n1CCO` [Metronidazole, metronidazole, reference compound], in [1] (99.9% reduction in viable count), the “MBC, strain A” value was determined as 1.5 µg/mL (≈ 8.76 µM). Also, the “MIC, strain A” value in test [1] (48 hours, 37° C., anaerobic) was 1.5 µg/mL (≈ 8.76 µM). For the same molecule, in [1], the MBC was less than 0.8 µg/mL. Further, the MIC in [1] (48 hours, 37° C., anaerobic) is less than 0.8 µg/mL; in test [8] (Clostridioides difficile, NCIB10666, C. difficile NCIB 10666, read-out: MIC), less than 0.8 µg/mL; in test [10] it was 3.1 µg/mL (≈ 18.1 µM); in [15] it was less than 0.8 µg/mL; in test [16] it was 100 µg/mL (≈ 584 µM).
